{
  "source": "patent US20160235686A1",
  "about": "“PROCESSES FOR PREPARING A SOLID POLYMER MATRIX CONTAINING A CORE MATERIAL BY PRESSURE CYCLING OF SUPERCRITICAL FLUID” (priority 2013, published 2016)",
  "experiment": "In vitro release testing of degarelix from microparticles",
  "type": "physicochemical",
  "conditions": "effect of 10 pressure cycles vs no pressure cycling, manitol/acetate buffer pH 4, 37° C.",
  "protocol": "In-vitro release of microparticles is conducted with a manitol/acetate buffer solution at pH 4. […] Each sample is analysed in triplicate.\nA 25 mg sample is weighed out into a 25 mL volumetric flask. 1 mL of acetone is added to the volumetric flask to dissolve the microparticles. Once dissolved, the volumetric flask is topped up with water (approximately 24 mL), precipitating the polymer. A 1 mL sample of the supernatant is taken and centrifuged at 13000 rpm for 3 min. From this, a 200 μL sample is taken and analysed by HPLC. The loading determination method is carried out in triplicate and an average is taken.",
  "note": "Non-standard residues stand in square brackets, D forms with d. Residues, ends and D or L forms follow the SMILES beside them. *: point of attachment. dPhe(4-NHCONH2) = NC(=O)Nc1ccc(C[C@@H](N)C(=O)O)cc1; Dihydroorotyl(S) = O=C1C[C@@H](C(=O)*)NC(=O)N1; dPhe(4-Cl) = N[C@H](Cc1ccc(Cl)cc1)C(=O)O; Phe(4-NH2) = Nc1ccc(C[C@H](N)C(=O)O)cc1; d2Nal = N[C@H](Cc1ccc2ccccc2c1)C(=O)O; Lys(iPr) = CC(C)NCCCC[C@H](N)C(=O)O; d3Pal = N[C@H](Cc1cccnc1)C(=O)O",
  "data": [
    {"compound": "CC(=O)N[C@H](Cc1ccc2ccccc2c1)C(=O)N[C@H](Cc1ccc(Cl)cc1)C(=O)N[C@H](Cc1cccnc1)C(=O)N[C@@H](CO)C(=O)N[C@@H](Cc1ccc(NC(=O)[C@@H]2CC(=O)NC(=O)N2)cc1)C(=O)N[C@H](Cc1ccc(NC(N)=O)cc1)C(=O)N[C@@H](CC(C)C)C(=O)N[C@@H](CCCCNC(C)C)C(=O)N1CCC[C@H]1C(=O)N[C@H](C)C(N)=O", "note": "[degarelix] (Ac-[d2Nal][dPhe(4-Cl)][d3Pal]S[Phe(4-NH2)](Dihydroorotyl(S))[dPhe(4-NHCONH2)]L[Lys(iPr)]P[dA]-NH2)", "values": [
      {"measurement": "decrease in the initial burst release of degarelix from the formulation", "setting": "FIG. 1, PLGA formulation prepared with processing aid (DMSO)", "value": "approximately 15%"},
      {"measurement": "decrease in the initial burst release of degarelix from the formulation", "setting": "FIG. 2, PLGA formulation prepared without a processing aid", "value": "approximately 3%"}
    ]}
  ]
}
